Data on 3 molecules can be found in ChEMBL document CHEMBL5715954, “Silencing c-Myc translation as a therapeutic strategy through targeting PI3Kδ and CK1ε in hematological malignancies” (Blood, 2017).

What all share (parameters): scale not given: the % may be the effect or the level left
Assay [1] concerns the target T1, Ephrin type-B receptor 3 (Homo sapiens) (UniProt P54753).
T1 sequence (whole entry): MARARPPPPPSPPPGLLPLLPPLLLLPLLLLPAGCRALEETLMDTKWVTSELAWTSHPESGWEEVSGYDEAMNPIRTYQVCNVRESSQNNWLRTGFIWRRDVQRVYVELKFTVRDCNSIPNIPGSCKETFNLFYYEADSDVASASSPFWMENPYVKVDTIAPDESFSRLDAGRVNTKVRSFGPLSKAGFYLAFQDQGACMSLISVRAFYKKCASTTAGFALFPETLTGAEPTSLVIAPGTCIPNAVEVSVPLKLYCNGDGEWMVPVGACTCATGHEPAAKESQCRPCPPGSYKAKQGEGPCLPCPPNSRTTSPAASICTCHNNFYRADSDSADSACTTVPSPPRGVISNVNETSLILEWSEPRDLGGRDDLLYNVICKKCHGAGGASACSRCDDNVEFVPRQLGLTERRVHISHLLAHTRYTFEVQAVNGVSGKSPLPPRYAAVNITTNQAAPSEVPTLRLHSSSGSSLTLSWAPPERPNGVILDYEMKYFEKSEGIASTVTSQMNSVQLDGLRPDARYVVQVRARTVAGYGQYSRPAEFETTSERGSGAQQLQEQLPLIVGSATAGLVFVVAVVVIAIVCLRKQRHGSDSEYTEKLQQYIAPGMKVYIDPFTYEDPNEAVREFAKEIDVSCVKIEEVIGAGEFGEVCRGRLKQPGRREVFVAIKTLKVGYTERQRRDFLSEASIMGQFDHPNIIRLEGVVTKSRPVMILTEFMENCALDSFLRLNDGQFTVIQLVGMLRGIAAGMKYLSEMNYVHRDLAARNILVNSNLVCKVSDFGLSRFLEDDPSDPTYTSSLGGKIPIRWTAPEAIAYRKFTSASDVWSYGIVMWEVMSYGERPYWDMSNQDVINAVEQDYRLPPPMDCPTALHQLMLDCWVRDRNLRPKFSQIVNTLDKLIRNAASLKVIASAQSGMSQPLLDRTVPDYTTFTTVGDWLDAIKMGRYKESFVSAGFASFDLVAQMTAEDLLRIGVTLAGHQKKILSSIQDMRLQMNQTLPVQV
Description: Inhibition of human EPHB3 assessed as enzyme activity at 1 uM using poly[Glu:Tyr] (4:1) as substrate preincubated for 20 mins followed by [gamma-33P]-ATP addition and measured after 120 mins by radiometric Hot-SpotSM Kinase assay relative to control.

The target in assay [2] is Tyrosine-protein kinase Fyn (Homo sapiens) (UniProt P06241). As to the kind of experiment: Inhibition of human FYN assessed as enzyme activity at 1 uM using poly[Glu:Tyr] (4:1) as substrate preincubated for 20 mins followed by [gamma-33P]-ATP addition and measured after 120 mins by radiometric Hot-SpotSM Kinase assay relative to control.
Sequence of Tyrosine-protein kinase Fyn (Homo sapiens) (P06241 2-537 limits assumed): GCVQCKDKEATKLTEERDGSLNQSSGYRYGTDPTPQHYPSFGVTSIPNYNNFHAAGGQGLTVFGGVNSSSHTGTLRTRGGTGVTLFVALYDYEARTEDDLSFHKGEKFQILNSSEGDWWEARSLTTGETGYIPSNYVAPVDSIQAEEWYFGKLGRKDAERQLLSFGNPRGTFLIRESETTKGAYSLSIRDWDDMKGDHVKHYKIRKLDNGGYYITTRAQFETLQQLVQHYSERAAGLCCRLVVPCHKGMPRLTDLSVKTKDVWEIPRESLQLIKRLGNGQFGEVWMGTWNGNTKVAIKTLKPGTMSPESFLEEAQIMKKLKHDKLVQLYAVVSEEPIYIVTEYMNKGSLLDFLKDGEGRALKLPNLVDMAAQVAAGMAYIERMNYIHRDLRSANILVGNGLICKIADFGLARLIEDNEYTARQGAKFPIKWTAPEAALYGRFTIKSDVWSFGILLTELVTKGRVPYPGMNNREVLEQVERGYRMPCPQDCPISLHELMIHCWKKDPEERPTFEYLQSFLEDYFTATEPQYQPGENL
Assay [3] deals with PAS domain-containing serine/threonine-protein kinase (Homo sapiens) (UniProt Q96RG2). Description: Inhibition of human PASK assessed as enzyme activity at 1 uM using KKLNRTLSFAEPG as substrate preincubated for 20 mins followed by [gamma-33P]-ATP addition and measured after 120 mins by radiometric Hot-SpotSM Kinase assay relative to control.
Sequence of PAS domain-containing serine/threonine-protein kinase (Homo sapiens) (Q96RG2 whole entry, the tested form may be a part): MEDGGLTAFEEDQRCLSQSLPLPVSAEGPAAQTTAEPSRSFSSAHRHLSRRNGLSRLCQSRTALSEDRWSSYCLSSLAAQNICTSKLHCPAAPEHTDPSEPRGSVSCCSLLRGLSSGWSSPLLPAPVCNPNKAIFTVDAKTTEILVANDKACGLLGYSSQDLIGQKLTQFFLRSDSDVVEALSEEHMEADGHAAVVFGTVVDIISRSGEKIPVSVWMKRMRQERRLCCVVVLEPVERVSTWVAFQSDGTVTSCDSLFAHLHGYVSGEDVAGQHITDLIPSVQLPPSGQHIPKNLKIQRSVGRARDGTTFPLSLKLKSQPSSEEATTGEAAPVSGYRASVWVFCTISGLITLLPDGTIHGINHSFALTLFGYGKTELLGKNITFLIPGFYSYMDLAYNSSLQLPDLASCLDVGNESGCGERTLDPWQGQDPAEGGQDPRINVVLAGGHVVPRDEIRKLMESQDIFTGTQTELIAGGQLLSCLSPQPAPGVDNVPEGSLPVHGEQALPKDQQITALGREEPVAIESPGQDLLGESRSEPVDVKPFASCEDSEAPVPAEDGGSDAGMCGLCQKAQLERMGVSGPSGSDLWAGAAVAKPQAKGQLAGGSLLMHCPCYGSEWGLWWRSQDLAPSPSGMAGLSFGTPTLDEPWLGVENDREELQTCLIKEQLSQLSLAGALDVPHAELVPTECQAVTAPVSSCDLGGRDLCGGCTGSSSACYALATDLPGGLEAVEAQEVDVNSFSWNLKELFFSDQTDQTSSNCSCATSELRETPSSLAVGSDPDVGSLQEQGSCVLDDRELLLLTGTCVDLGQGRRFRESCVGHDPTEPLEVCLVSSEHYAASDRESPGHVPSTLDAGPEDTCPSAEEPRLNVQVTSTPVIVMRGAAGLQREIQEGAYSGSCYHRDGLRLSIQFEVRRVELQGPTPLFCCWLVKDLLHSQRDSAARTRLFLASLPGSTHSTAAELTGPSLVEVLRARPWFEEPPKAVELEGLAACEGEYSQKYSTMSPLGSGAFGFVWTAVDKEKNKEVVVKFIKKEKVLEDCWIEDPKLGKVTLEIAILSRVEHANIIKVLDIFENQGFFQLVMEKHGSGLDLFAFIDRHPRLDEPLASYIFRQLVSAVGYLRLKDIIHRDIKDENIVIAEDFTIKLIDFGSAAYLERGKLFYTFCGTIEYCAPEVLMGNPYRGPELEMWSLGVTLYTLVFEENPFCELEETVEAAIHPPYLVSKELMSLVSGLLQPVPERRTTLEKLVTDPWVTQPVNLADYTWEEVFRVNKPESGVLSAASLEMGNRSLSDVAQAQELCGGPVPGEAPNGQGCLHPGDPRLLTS
Assay [4] has as its target T2, Protein kinase C zeta type (Homo sapiens) (UniProt Q05513).
T2 sequence (whole entry): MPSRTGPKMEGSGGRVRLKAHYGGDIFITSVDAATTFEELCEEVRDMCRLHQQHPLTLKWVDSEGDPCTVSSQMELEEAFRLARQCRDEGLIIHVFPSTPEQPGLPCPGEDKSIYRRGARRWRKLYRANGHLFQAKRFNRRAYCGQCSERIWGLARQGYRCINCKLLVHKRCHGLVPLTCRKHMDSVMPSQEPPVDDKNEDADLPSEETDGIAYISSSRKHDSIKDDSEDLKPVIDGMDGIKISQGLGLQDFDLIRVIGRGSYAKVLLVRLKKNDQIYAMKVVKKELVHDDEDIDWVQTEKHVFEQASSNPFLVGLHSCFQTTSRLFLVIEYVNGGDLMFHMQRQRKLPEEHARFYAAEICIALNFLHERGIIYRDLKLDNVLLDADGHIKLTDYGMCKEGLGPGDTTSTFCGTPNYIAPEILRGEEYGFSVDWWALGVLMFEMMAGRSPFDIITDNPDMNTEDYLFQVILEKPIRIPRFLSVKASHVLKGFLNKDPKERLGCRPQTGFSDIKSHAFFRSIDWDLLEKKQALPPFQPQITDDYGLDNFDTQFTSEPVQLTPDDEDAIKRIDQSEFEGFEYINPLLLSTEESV
Description: Inhibition of human PKCzeta assessed as enzyme activity at 1 uM using ERMRPRKRQGSVRRRV as substrate preincubated for 20 mins followed by [gamma-33P]-ATP addition and measured after 120 mins by radiometric Hot-SpotSM Kinase assay relative to control.

Assay [5] has as its target T3, cGMP-dependent protein kinase 1 (Homo sapiens) (UniProt Q13976).
T3 sequence (whole entry): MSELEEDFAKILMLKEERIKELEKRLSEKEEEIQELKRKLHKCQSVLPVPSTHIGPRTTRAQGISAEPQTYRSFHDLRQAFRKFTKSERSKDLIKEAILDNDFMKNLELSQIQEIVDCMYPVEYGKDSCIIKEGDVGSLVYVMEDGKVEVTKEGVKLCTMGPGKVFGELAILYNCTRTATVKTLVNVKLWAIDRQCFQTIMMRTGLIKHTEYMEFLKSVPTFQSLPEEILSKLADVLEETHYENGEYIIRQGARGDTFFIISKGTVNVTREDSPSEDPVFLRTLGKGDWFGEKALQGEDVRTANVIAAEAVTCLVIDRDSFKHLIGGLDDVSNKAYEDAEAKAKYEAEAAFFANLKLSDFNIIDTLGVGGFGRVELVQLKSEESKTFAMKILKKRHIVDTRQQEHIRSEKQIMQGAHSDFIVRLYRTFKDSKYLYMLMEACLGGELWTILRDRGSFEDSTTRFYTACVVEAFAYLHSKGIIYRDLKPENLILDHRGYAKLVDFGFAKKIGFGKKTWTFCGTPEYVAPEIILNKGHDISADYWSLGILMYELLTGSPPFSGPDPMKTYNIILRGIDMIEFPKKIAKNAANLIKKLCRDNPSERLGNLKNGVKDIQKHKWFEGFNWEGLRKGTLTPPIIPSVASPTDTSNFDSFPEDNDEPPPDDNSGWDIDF
As to the kind of experiment: Inhibition of human PKG1b assessed as enzyme activity at 1 uM using LRRASLG as substrate preincubated for 20 mins followed by [gamma-33P]-ATP addition and measured after 120 mins by radiometric Hot-SpotSM Kinase assay relative to control.

Turning to `C[C@H](Nc1ncnc2nc[nH]c12)c1cc2cccc(Cl)c2c(=O)n1-c1ccccc1`, the Activity was 89.7% in assay [1]; 103% in assay [2]; 95.3% in assay [3]; 89.9% in assay [4]; 95.9% in assay [5].
For `CC[C@H](Nc1ncnc2[nH]cnc12)c1nc2cccc(F)c2c(=O)n1-c1ccccc1` the same measures were 98.3%, 100%, 99.6%, 91.5% and 99.8%.
The like results for `CC(C)Oc1ccc(-c2nn([C@@H](C)c3oc4ccc(F)cc4c(=O)c3-c3cccc(F)c3)c3ncnc(N)c23)cc1F` [UMBRALISIB] were, in that order, 97.4%, 99.7%, 98.7%, 93.6% and 90.3%.
